Data from article PMC7072606, “Discrimination of Naturally-Occurring 2-Arylbenzofurans as Cyclooxygenase-2 Inhibitors: Insights into the Binding Mode and Enzymatic Inhibitory Activity” (Biomolecules, 2020).

Target: T1, bovine COX-2 (Bos taurus, UniProt O62698)
T1 sequence (O62698 18-604): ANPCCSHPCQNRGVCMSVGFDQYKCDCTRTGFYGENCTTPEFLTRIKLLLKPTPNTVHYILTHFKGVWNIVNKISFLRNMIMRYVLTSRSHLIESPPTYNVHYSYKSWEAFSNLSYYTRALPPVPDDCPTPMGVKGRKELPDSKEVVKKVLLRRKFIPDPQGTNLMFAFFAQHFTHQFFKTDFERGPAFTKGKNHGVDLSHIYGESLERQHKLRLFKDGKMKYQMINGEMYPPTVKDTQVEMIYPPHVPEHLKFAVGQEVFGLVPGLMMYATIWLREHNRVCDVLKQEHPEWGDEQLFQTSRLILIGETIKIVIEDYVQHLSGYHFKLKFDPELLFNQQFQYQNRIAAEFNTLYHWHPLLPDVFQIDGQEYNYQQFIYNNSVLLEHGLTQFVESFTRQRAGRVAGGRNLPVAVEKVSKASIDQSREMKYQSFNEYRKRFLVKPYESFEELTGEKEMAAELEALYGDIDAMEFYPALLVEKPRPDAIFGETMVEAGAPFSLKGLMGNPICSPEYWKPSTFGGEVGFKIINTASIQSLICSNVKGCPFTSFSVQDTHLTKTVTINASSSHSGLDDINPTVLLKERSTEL
Experiment: COX-2 inhibition assay, enzyme immunoassay (EIA) kit
Type: biochemical
Conditions: in-vitro
Experimental: The ability of selected compounds to inhibit bovine COX-2 was determined using an enzyme immunoassay (EIA) kit (Cayman Chemical Company, Ann Arbor, MI, USA), according to the reported method. The activity was expressed as half-maximal inhibitory concentrations, IC50 (in μM), obtained after non-linear regression, using the program GraphPad Prism version 5.00 (GraphPad Software, San Diego, CA, USA).

## salvianolic acid B [Compound 51]
  IC50: 10.5 µM
